Bounds are passed on as bounds.

Sequence of full-length human PRMT8 isoform 1 (Q9NR22 whole entry, the tested form may be a part, canonical isoform): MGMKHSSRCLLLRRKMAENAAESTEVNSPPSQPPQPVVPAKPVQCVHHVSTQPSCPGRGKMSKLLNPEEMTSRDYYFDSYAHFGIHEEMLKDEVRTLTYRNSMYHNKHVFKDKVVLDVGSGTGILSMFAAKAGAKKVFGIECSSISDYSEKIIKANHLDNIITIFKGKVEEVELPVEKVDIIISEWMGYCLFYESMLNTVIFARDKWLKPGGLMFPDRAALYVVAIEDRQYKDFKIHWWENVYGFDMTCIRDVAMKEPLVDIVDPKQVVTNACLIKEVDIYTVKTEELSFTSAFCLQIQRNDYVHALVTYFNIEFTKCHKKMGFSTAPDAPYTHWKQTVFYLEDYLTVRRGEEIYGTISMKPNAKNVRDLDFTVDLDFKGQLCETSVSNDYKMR

One experiment has as its target full-length human PRMT8 isoform 1 (Homo sapiens, UniProt Q9NR22). Put plainly: PRMT8 biochemical assay (3H-SAM Flashplate, histone H4 31-45 peptide). The conditions noted are these: 1.5 nM PRMT8, 30 min preincubation, 150 nM peptide. An excerpt: S-adenosylmethionine (SAM), S-adenosylhomocysteine (SAH), bicine, Tween20, dimethylsulfoxide (DMSO), bovine skin gelatin (BSG), isopropyl-β-D-thiogalactopyranoside (IPTG), and Tris(2-carboxyethyl)phosphine hydrochloride solution (TCEP) were purchased from Sigma-Aldrich at the highest level of purity possible. ^3H-SAM was purchase from American Radiolabeled Chemicals with a specific activity of 80 Ci/mmol. 384-well streptavidin Flashplates were purchased from PerkinElmer.
Peptide representative of human histone H4 residues 31-45 was synthesized with an N-terminal linker-affinity tag motif and a C-terminal amide cap by 21st Century Biochemicals. The peptide was purified by high-performance liquid chromatography (HPLC) to greater than 95% purity and confirmed by liquid chromatography mass spectrometry (LC-MS). The sequence was Biot-Ahx-[…]-amide (SEQ ID NO.:8).
The resulting construct encodes an N-terminal GST tag and a thrombin cleavage sequence
E. coli (BL21(DE3) Gold, Stratagene) made competent by the CaCl2 method were transformed with the PRMT8 construct and ampicillin selection. Protein over-expression was accomplished by growing the PRMT8 expressing E. coli clone and inducing expression with 0.3 mM IPTG at 16° C. The culture was grown for 12 hours, harvested by centrifugation, and stored at −80° C. for purification.
GST-tagged PRMT8 was eluted with 50 mM Tris, 2 mM glutathione, pH 7.8. Pooled fractions were cleaved by thrombin (10U) and dialysed in buffer A. GST was removed by reloading the cleaved protein sample onto glutathione sepharose column and PRMT8 was collected in the flow-through fractions. PRMT8 was purified further by ceramic hydroxyapatite chromatography. The column was washed with 50 mM phosphate buffer, 100 mM NaCl, 5% glycerol, 5 mM […], pH 7.8 and PRMT8 was eluted by 100 mM phosphate in the same buffer. Protein was concentrated and buffer was exchanged to 50 mM Tris, 300 mM NaCl, 10% glycerol, 5 mM β-mercaptoethanol, pH 7.8 by ultrafiltration. The purity of recovered protein was 89%.
General Procedure for PRMT8 Enzyme Assays on Peptide Substrates.
The assays were all performed in a buffer consisting of 20 mM Bicine (pH=7.6), 1 mM TCEP, 0.005% BSG, and 0.002% Tween 20, prepared on the day of use. Compounds in 100% DMSO (1 ul) were spotted into a polypropylene 384-well V-bottom plates (Greiner) using a Platemate Plus outfitted with a 384-channel head (Thermo Scientific). DMSO (1 ul) was added to Columns 11, 12, 23, 24, rows A-H for the maximum signal control and 1 ul of SAH, a known product and inhibitor of PRMT8, was added to columns 11, 12, 23, 24, rows I-P for the minimum signal control. A cocktail (40 ul) containing the PRMT8 enzyme was added by Multidrop Combi (Thermo-Fisher). The compounds were allowed to incubate with PRMT8 for 30 min at room temperature, then a cocktail (10 ul) containing ^3H-SAM and peptide was added to initiate the reaction (final volume=51 ul). The final concentrations of the components were as follows: PRMT8 was 1.5 nM, ^3H-SAM was 50 nM, non-radiolabeled SAM was 550 nM, peptide was 150 nM, SAH in the minimum signal control wells was 1 mM, and the DMSO concentration was 2%. The assays were stopped by the addition of non-radiolabeled SAM (10 ul) to a final concentration of 400 uM, which dilutes the ^3H-SAM to a level where its incorporation into the peptide substrate is no longer detectable. 50 ul of the reaction in the 384-well polypropylene plate was then transferred to a 384-well Flashplate and the biotinylated peptides were allowed to bind to the streptavidin surface for at least 1 hour before being washed once with 0.1% Tween20 in a Biotek ELx405 plate washer. The plates were then read in a PerkinElmer TopCount plate reader to measure the quantity of ^3H-labeled peptide bound to the Flashplate surface, measured as disintegrations per minute (dpm) or alternatively, referred to as counts per minute (cpm). […]
`CCC1(CC)C[C@]2(CC[C@@H](c3n[nH]cc3CN(C)CCNC)CC2)OC1=O` [compound 34, (5r,8r)-3,3-diethyl-8-(4-((methyl(2-(methylamino)ethyl)amino)methyl)-1H-pyrazol-3-yl)-1-oxaspiro[4.5]decan-2-one] gave an IC50 of 146 nM.
As to `CNCCN(C)Cc1c[nH]nc1C1CCC(C)(C)[C@H](COCCOC)C1` (stereo partly drawn) [compound 35, {2-[({3-[(3R)-3-[(2-methoxyethoxy)methyl]-4,4-dimethylcyclohexyl]-1H-pyrazol-4-yl}methyl)(methyl)amino]ethyl}(methyl)amine], the IC50 was 110 nM.
Still for that read-out and setting: next, `CCCOCC1(COCCC)CCC(c2n[nH]cc2CN(C)CCNC)CC1` [compound 36, N^1-((3-(4,4-bis(propoxymethyl)cyclohexyl)-1H-pyrazol-4-yl)methyl)-N^1,N^2-dimethylethane-1,2-diamine]: 12.4 nM; `CC[C@]12CC[C@](CC)(C[C@H](c3n[nH]cc3CN(C)CCNC)C1)O2` [compound 37, N1-((3-((1R,3r,5S)-1,5-diethyl-8-oxabicyclo[3.2.1]octan-3-yl)-1H-pyrazol-4-yl)methyl)-N1,N2-dimethylethane-1,2-diamine]: 45.5 nM; `CC[C@]12CC[C@](CC)(C[C@@H](c3n[nH]cc3CN(C)CCNC)C1)O2` [compound 38, N1-((3-((1R,3s,5S)-1,5-diethyl-8-oxabicyclo[3.2.1]octan-3-yl)-1H-pyrazol-4-yl)methyl)-N1,N2-dimethylethane-1,2-diamine]: 177 nM.
`CNCCN(C)Cc1ccnn1[C@H]1CC[C@]2(CC1)CC(C)(C)CO2` [compound 50, N1-((1-((5r,8r)-3,3-dimethyl-1-oxaspiro[4.5]decan-8-yl)-1H-pyrazol-5-yl)methyl)-N1,N2-dimethylethane-1,2-diamine] came in with an IC50 of 32.2 nM. Against the preceding compound, the IC50 is about 5.5-fold lower.
With `Cc1[nH]nc([C@H]2CC[C@@]3(CC2)CC(C)(C)CO3)c1CN(C)CCN` [compound 51, N1-((3-((5s,8s)-3,3-dimethyl-1-oxaspiro[4.5]decan-8-yl)-5-methyl-1H-pyrazol-4-yl)methyl)-N1-methylethane-1,2-diamine], the IC50 is 14.2 nM.
`Cc1[nH]nc([C@H]2CC[C@]3(CC2)CC(C)(C)CO3)c1CN(C)CCN` [compound 52, N1-((3-((5r,8r)-3,3-dimethyl-1-oxaspiro[4.5]decan-8-yl)-5-methyl-1H-pyrazol-4-yl)methyl)-N1-methylethane-1,2-diamine]: the IC50 is 23.1 nM.
Consider `CNCCN(C)Cc1c(C)[nH]nc1[C@H]1CC[C@@]2(CC1)CC(C)(C)CO2` [compound 57], for which the midpoint of inhibition, the IC50, lay at 32.7 nM.
The compound `CNCCN(C)Cc1c(C)[nH]nc1[C@H]1CC[C@]2(CC1)CC(C)(C)CO2` [compound 58] returned an IC50 of 55.1 nM.
The compound `Cc1[nH]nc(C2CCC3(CC2)CC(C)(C)CO3)c1CN(C)CCN` (centres unmarked) [compound 59] returned a 50% inhibitory concentration (IC50) of 17.5 nM.
`CCOCC1(COCC)CC=C(c2n[nH]cc2CN(C)CCNC)CC1` [compound 60] registered an IC50 of 22.5 nM.
On the same count and under the same terms, next, `CNCCN(C)Cc1scnc1[C@H]1CC[C@@]2(CC1)CC(C)(C)CO2` [compound 62]: 9.08 nM; `CNCCN(C)Cc1nn(C)nc1[C@H]1CC[C@@]2(CC1)CC(C)(C)CO2` [compound 64]: 25.3 nM.
Regarding `CNCCN(C)Cc1cnnn1[C@H]1CC[C@@]2(CC1)CC(C)(C)CO2` [compound 65], the IC50 is > 10000 nM.
On the same count and under the same terms, then `CNCCN(C)Cc1nn[nH]c1[C@H]1CC[C@@]2(CC1)CC(C)(C)CO2` [compound 67], with 19.8 nM; and `CNCCN(C)Cc1nncn1[C@H]1CC[C@@]2(CC1)CC(C)(C)CO2` [compound 68], with 3480 nM.
Same read-out and setting: then `CNCCN(C)Cc1nccn1[C@H]1CC[C@@]2(CC1)CC(C)(C)CO2` [compound 69], with 273 nM.
In the case of `CNCCN(C)Cc1nnc(C)n1[C@H]1CC[C@@]2(CC1)CC(C)(C)CO2` [compound 71], the 50% inhibitory concentration (IC50) worked out at 4320 nM.
`CNCCN(C)Cc1cncn1[C@H]1CC[C@@]2(CC1)CC(C)(C)CO2` [compound 76] yielded an IC50 of 15.7 nM. This IC50 lies about 280-fold lower than the previous one.
With `CNCCN(C)Cc1nc(C)sc1[C@H]1CC[C@@]2(CC1)CC(C)(C)CO2` [compound 77], the 50% inhibitory concentration (IC50) is 27.7 nM.
As to `CNCCN(C)Cc1sc(C)nc1[C@H]1CC[C@@]2(CC1)CC(C)(C)CO2` [compound 78], half-maximal inhibition (IC50) required 33.8 nM.
Compound `CN(CCN)Cc1nn(C)cc1[C@H]1CC[C@@]2(CC1)CC(C)(C)CO2` [compound 80] displayed an IC50 of 12.1 nM.
On to `CNCCN(C)Cc1nn(C)cc1[C@H]1CC[C@@]2(CC1)CC(C)(C)CO2` [compound 81], for which the IC50 amounted to 30.9 nM.
Compound `CNCCN(C)Cc1ncsc1[C@H]1CC[C@@]2(CC1)CC(C)(C)CO2` [compound 83] registered an IC50 of 18.5 nM.
As to `CNCCN(C)Cc1scnc1[C@H]1CC[C@]2(CC1)CC(C)(C)CO2` [compound 84], half-maximal inhibition (IC50) required 24.2 nM.
For `CNCCN(C)Cc1nn[nH]c1[C@H]1CC[C@]2(CC1)CC(C)(C)CO2` [compound 89], the IC50 came to 137 nM.
For the compound `CNCCN(C)Cc1nncn1[C@H]1CC[C@]2(CC1)CC(C)(C)CO2` [compound 90], the IC50 was > 10000 nM.
In turn, `CNCCN(C)Cc1nccn1[C@H]1CC[C@]2(CC1)CC(C)(C)CO2` [compound 91] gave an IC50 of 1180 nM.
Turning to `CNCCN(C)Cc1nnc(C)n1[C@H]1CC[C@]2(CC1)CC(C)(C)CO2` [compound 93], the IC50 was > 10000 nM.
In turn, `CNCCN(C)Cc1c(Cl)ncn1[C@H]1CC[C@]2(CC1)CC(C)(C)CO2` [compound 97] gave a half-maximal inhibitory concentration (IC50) of 526 nM.
`CNCCN(C)Cc1cncn1[C@H]1CC[C@]2(CC1)CC(C)(C)CO2` [compound 98] displayed an IC50 of 3680 nM.
With `CNCCN(C)Cc1nc(C)sc1[C@H]1CC[C@]2(CC1)CC(C)(C)CO2` [compound 99], the IC50 amounted to 49 nM.
`CNCCN(C)Cc1sc(C)nc1[C@H]1CC[C@]2(CC1)CC(C)(C)CO2` [compound 100] came in with an IC50 of 43.6 nM. The IC50 values of the last two compounds are within 1.5-fold of each other.
The same measure, in the same setting: next, `CN(CCN)Cc1nn(C)cc1[C@H]1CC[C@]2(CC1)CC(C)(C)CO2` [compound 102]: 38.9 nM; `CNCCN(C)Cc1nn(C)cc1[C@H]1CC[C@]2(CC1)CC(C)(C)CO2` [compound 103]: 42.7 nM.
`CN(CCN)Cc1c[nH]nc1[C@H]1CC[C@@]2(CC1)CC(C)(C)CO2` [compound 105] displayed an IC50 of 9.13 nM.
In turn, `CN(CCN)Cc1c[nH]nc1[C@H]1CC[C@]2(CC1)CC(C)(C)CO2` [compound 106] returned an IC50 of 67.2 nM.
`CNCCN(C)Cc1c(C)noc1[C@H]1CC[C@@]2(CC1)CC(C)(C)CO2` [compound 113] showed an IC50 of 51.5 nM. This IC50 and that of the compound before are within 1.5-fold of each other.
`CNCCN(C)Cc1c(C)noc1[C@H]1CC[C@]2(CC1)CC(C)(C)CO2` [compound 114] had an IC50 of 68 nM. This IC50 and that of the compound before are within 1.5-fold of each other.
`CNCCN(C)Cc1n[nH]cc1[C@H]1CC[C@@]2(CC1)CC(C)(C)CO2` [compound 115] had a concentration for half-maximal inhibition (IC50) of 16.2 nM.
On the same count and under the same terms, then `CNCCN(C)Cc1n[nH]cc1[C@H]1CC[C@]2(CC1)CC(C)(C)CO2` [compound 116], with 31.8 nM; and `CNCCN(C)Cc1nocc1[C@H]1CC[C@@]2(CC1)CC(C)(C)CO2` [compound 117], with 40.8 nM.
Compound `CNCCN(C)Cc1nocc1[C@H]1CC[C@]2(CC1)CC(C)(C)CO2` [compound 118] displayed a half-maximal inhibitory concentration (IC50) of 482 nM.
The compound `CCOCC1(COCC)CCC(c2n[nH]cc2CN(C)CCN(C)C)CC1` [compound 121] had an IC50 of 58.2 nM.
As to `CCOCC1(COCC)CCC(c2nn(C)cc2CN(C)CCNC)CC1` [compound 122], the 50% inhibitory concentration (IC50) worked out at 28.3 nM.

Staying with this experiment, now noted: […] PRMT8, 30 min preincubation, 150 nM peptide.
In turn, `CNCCN(C)Cc1nn(C)nc1C1CCC2(CC1)CC(C)(C)CO2` (centres unmarked) [compound 86] had an IC50 of 49.9 nM.

As a reminder, the IC50 is the concentration that inhibits the measured activity by half. The low end stands for inhibition by little substance, the high end for a need for much substance.
